Laboratory results published in patent publication US12590062B2, “PD-1/PD-L1 inhibitors” (Gilead Sciences, Inc., priority 2017, dated 2026).

What was measured:
PD-1/PD-L1 = PD-1/PD-L1 (Homo sapiens, UniProt Q9NZQ7); assay: PD-1/PD-L1 biochemical protein-protein interaction assay (ALPHA); format: binding; settings: 0.3 nM His tagged PD-L1, 2.5 nM biotinylated Fc-PD-1, 60 minutes at 25° C., read-out: IC50 PD-L1-PD-1 Alpha IC50-mono PD-L1-fcP-D1
How it was run: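 ALPHA bead proximity assay of extracellular domains: 0.3 nM His-PD-L1 with 2.5 nM biotinylated Fc-PD-1 in 25 mM Hepes pH 7.4, 150 mM NaCl, 3.4 mM EDTA, 0.005% Tween 20, 0.01% BSA, 60 min at 25 °C. Anti-His acceptor and streptavidin donor beads added; IC50 from four-parameter fit of signal loss.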

PD-1/PD-L1 interaction = biological target: T1, PD-1/PD-L1 interaction (Homo sapiens, UniProt Q9NZQ7); assay: PD-1/PD-L1 NFAT reporter co-culture assay; format: cell-based; settings: Jurkat PD-1 NFAT-luciferase cells co-cultured with aAPC-PD-L1 CHO cells, 6 hrs at 37° C.; read-out: EC50 NFAT Luciferase
T1 construct: expressed in transfected cells; host or cells: CHO cells (aAPC-PD-L1) co-cultured with Jurkat cells overexpressing PD-1 and an NFAT-luciferase reporter
T1 sequence (Q9NZQ7 19-290): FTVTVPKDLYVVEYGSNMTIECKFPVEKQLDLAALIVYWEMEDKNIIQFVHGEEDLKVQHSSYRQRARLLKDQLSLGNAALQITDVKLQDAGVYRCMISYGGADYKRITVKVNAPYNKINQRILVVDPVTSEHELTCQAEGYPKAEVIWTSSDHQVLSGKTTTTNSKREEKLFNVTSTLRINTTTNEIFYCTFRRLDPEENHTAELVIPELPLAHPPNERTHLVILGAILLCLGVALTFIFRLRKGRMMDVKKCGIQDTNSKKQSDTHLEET
How it was run: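 Compounds are scored by restoration of NFAT-luciferase signal in PD-1-expressing Jurkat cells cultured 6 h at 37 °C on CHO cells presenting anti-CD3 and PD-L1; EC50 values derive from four-parameter curve fitting.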

PD-L1 = biological target: T2, PD-L1 (Homo sapiens, UniProt Q9NZQ7); assay: PD-L1/PD-L1 dimerization biochemical protein-protein interaction assay (ALPHA); format: binding; settings: compound-induced PD-L1 dimerization, head prints '1 nM' (0.5 nM His-tagged PD-L1 and 0.5 nM FLAG-tagged PD-L1), read-out: AC50 PDL1 Dimer Alpha 1 nM
T2 construct: determine if they can specifically dimerize the extracellular domains of PD-L1
T2 sequence (Q9NZQ7 19-238 limits assumed): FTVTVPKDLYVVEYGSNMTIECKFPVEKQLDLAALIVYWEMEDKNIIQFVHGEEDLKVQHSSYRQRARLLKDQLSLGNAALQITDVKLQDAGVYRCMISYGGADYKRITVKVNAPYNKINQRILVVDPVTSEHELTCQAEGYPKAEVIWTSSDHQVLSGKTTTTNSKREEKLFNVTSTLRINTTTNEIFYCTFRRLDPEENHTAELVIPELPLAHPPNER
T2 sequence (Q9NZQ7 19-238 limits assumed): as above
How it was run: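 ALPHA proximity assay of compound-induced dimerization of 0.5 nM His-tagged and 0.5 nM FLAG-tagged PD-L1 extracellular domains in Hepes pH 7.4 buffer, 2 h at 25 °C. Anti-His acceptor then anti-FLAG donor beads, 60 min each; AC50 from four-parameter fit.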

Chain of PD-1/PD-L1 (Q9NZQ7 19-238 limits assumed): as above

SMILES | IC50 (PD-1/PD-L1) [nM] | EC50 (PD-1/PD-L1 interaction) [nM] | AC50 (PD-L1) [nM]
Cc1c(COc2cc(OCc3cncc(C#N)c3)c(CNC[C@@H](O)CC(=O)O)cc2Cl)cccc1-c1cccc(-c2ccc(OCCNC[C@@H](O)CC(=O)O)c(C(N)=O)c2)c1C [Example 312, (S)-4-((2-((3-carbamoyl-3″-((4-((((S)-3-carboxy-2-hydroxypropyl)amino)methyl)-2-chloro-5-((5-cyanopyridin-3-yl)methoxy)phenoxy)methyl)-2′,2″-dimethyl-[1,1′:3′,1″-terphenyl]-4-yl)oxy)ethyl)amino)-3-hydroxybutanoic acid] | 0.051 | 97 | 144
Cc1c(COc2cc(OCc3cncc(C#N)c3)c(CN[C@@](C)(CO)C(=O)O)cc2Cl)cccc1-c1cccc(-c2ccc(OCCN[C@@](C)(CO)C(=O)O)cc2)c1C [Example 313, (S)-2-((4-((4″-(2-(((S)-2-carboxy-1-hydroxypropan-2-yl)amino)ethoxy)-2,2′-dimethyl-[1,1′:3′,1″-terphenyl]-3-yl)methoxy)-5-chloro-2-((5-cyanopyridin-3-yl)methoxy)benzyl)amino)-3-hydroxy-2-methylpropanoic acid] | 0.051 | 152 | 91.3
COc1cc(-c2cccc(-c3cccc(-c4ccc(CNC[C@@H](O)CC(=O)O)c(OC)c4)c3C)c2C)ccc1CNC[C@@H](O)CC(=O)O [Example 317, (3S,3′S)-4,4′-(((3,3′″-dimethoxy-2′,2″-dimethyl-[1,1′:3′,1″:3″,1′″-quaterphenyl]-4,4′″-diyl)bis(methylene))bis(azanediyl))bis(3-hydroxybutanoic acid)] | 0.577 | 1100 | 1180
Cc1c(COc2cc(OCc3cncc(C#N)c3)c(CN[C@@](C)(CO)C(=O)O)cc2Cl)cccc1-c1cccc(-c2ccc(CNCC3CCC(=O)N3)cc2)c1C (stereo partly drawn) [Example 323, (2S)-2-((5-chloro-2-((5-cyanopyridin-3-yl)methoxy)-4-((2,2′-dimethyl-4″-((((5-oxopyrrolidin-2-yl)methyl)amino)methyl)-[1,1′:3′,1″-terphenyl]-3-yl)methoxy)benzyl)amino)-3-hydroxy-2-methylpropanoic acid] | 0.074 | 168 | 67.1
Cc1c(-c2ccc(CN3CC[C@@H](O)C3)cc2)cccc1-c1cccc(-c2ccc(CNC[C@@H](O)CC(=O)O)c(OCCCC#N)c2)c1C [Example 324, (S)-4-(((3-(3-cyanopropoxy)-4′″-(((R)-3-hydroxypyrrolidin-1-yl)methyl)-2′,2″-dimethyl-[1,1′:3′,1″:3″,1′″-quaterphenyl]-4-yl)methyl)amino)-3-hydroxybutanoic acid] | 0.505 | 894 | 1020
Cc1c(-c2ccc(CN3CC[C@@H](O)C3)cc2)cccc1-c1cccc(-c2ccc(CNC[C@@H](O)CC(=O)O)c(OC(F)(F)F)c2)c1C [Example 325, (S)-3-hydroxy-4-(((4′″-(((R)-3-hydroxypyrrolidin-1-yl)methyl)-2′,2″-dimethyl-3-(trifluoromethoxy)-[1,1′:3′,1″:3″,1′″-quaterphenyl]-4-yl)methyl)amino)butanoic acid] | 1.38 | 2580 | 633
Cc1c(COc2cc(OCc3cncc(C#N)c3)c(CNC[C@@H](O)CC(=O)O)cc2Cl)cccc1-c1cccc(-c2ccc(CNCc3cncc(C#N)c3)cc2)c1C [Example 326, (S)-4-((5-chloro-2-((5-cyanopyridin-3-yl)methoxy)-4-((4″-((((5-cyanopyridin-3-yl)methyl)amino)methyl)-2,2′-dimethyl-[1,1′:3′,1″-terphenyl]-3-yl)methoxy)benzyl)amino)-3-hydroxybutanoic acid] | 1.15 | 439 | 1210
Cc1c(COc2nc(OC[C@@H]3CCC(=O)N3)c(CNC[C@@H](O)CC(=O)O)cc2Br)cccc1-c1cccc(COc2nc(OC[C@@H]3CCC(=O)N3)c(CNC[C@@H](O)CC(=O)O)cc2Br)c1C [Example 328, (3S,3′S)-4,4′-((((((2,2′-dimethyl-[1,1′-biphenyl]-3,3′-diyl)bis(methylene))bis(oxy))bis(5-bromo-2-(((S)-5-oxopyrrolidin-2-yl)methoxy)pyridine-6,3-diyl))bis(methylene))bis(azanediyl))bis(3-hydroxybutanoic acid)] | 0.142 | 146 | 241
Cc1c(COc2cc(OCc3cncc(C#N)c3)c(CN[C@@](C)(CO)C(=O)O)cc2Cl)cccc1-c1cccc(-c2nnc(CCN)o2)c1C [Example 329, (S)-2-((4-((3′-(5-(2-aminoethyl)-1,3,4-oxadiazol-2-yl)-2,2′-dimethyl-[1,1′-biphenyl]-3-yl)methoxy)-5-chloro-2-((5-cyanopyridin-3-yl)methoxy)benzyl)amino)-3-hydroxy-2-methylpropanoic acid] | 0.284 | 466 | 290
Cc1c(COc2cc(OCc3cncc(C#N)c3)c(CNC[C@@H](O)CC(=O)O)cc2Cl)cccc1-c1cccc(-c2cn(C3CCNCC3)nn2)c1C [Example 330, (S)-4-((5-chloro-2-((5-cyanopyridin-3-yl)methoxy)-4-((2,2′-dimethyl-3′-(1-(piperidin-4-yl)-1H-1,2,3-triazol-4-yl)-[1,1′-biphenyl]-3-yl)methoxy)benzyl)amino)-3-hydroxybutanoic acid] | 0.188 | 1640 | 209
Cc1c(COc2cc(OCc3cncc(C#N)c3)c(CNC[C@@H](O)CC(=O)O)cc2Cl)cccc1-c1cccc(-c2cn(CC3CCNC3)nn2)c1C (stereo partly drawn) [Example 331] | 0.273 | 232 | 500
C[C@@](CO)(NCc1cc(Cl)c(O[C@H]2CCc3c(-c4cccc(-c5ccc(OCCNCCO)cc5)c4Cl)cccc32)nc1OCc1cc(C#N)cc(C#N)c1)C(=O)O [Example 332, (S)-2-(((5-chloro-6-(((S)-4-(2-chloro-4′-(2-((2-hydroxyethyl)amino)ethoxy)-[1,1′-biphenyl]-3-yl)-2,3-dihydro-1H-inden-1-yl)oxy)-2-((3,5-dicyanobenzyl)oxy)pyridin-3-yl)methyl)amino)-3-hydroxy-2-methylpropanoic acid] | 0.114 | 47 | 18.7
Cc1c(COc2cc(OCc3cncc(C#N)c3)c(CN3CC[C@@H](O)C3)cc2Cl)cccc1-c1cccc(-c2ccc(CNCCCCC(=O)O)cc2)c1C [Example 333, (R)-5-(((3″-((2-chloro-5-((5-cyanopyridin-3-yl)methoxy)-4-((3-hydroxypyrrolidin-1-yl)methyl)phenoxy)methyl)-2′,2″-dimethyl-[1,1′:3′,1″-terphenyl]-4-yl)methyl)amino)pentanoic acid] | 0.289 | 481 | 203
Cc1c(COc2cc(OCc3cncc(C#N)c3)c(CNC[C@@H](O)CC(=O)O)cc2Cl)cccc1-c1cccc(-c2ccc(CN3CC[C@H](O)C3)cc2)c1C [Example 335, (S)-4-((5-chloro-2-((5-cyanopyridin-3-yl)methoxy)-4-((4″-(((S)-3-hydroxypyrrolidin-1-yl)methyl)-2,2′-dimethyl-[1,1′:3′,1″-terphenyl]-3-yl)methoxy)benzyl)amino)-3-hydroxybutanoic acid] | 0.414 | 437 | 231
Cc1c(COc2cc(OCc3cncc(C#N)c3)c(CN[C@@](C)(CO)C(=O)O)cc2Cl)cccc1-c1cccc(-c2ccc(CN3CC[C@H](O)C3)cc2)c1C [Example 336, (S)-2-((5-chloro-2-((5-cyanopyridin-3-yl)methoxy)-4-((4″-(((S)-3-hydroxypyrrolidin-1-yl)methyl)-2,2′-dimethyl-[1,1′:3′,1″-terphenyl]-3-yl)methoxy)benzyl)amino)-3-hydroxy-2-methylpropanoic acid] | 0.124 | 398 | 109
Cc1c(COc2cc(OCc3cncc(C#N)c3)c(CN[C@H]3CC[C@@H](C(=O)O)C3)cc2Cl)cccc1-c1cccc(-c2ccc(OCCNCCO)cc2)c1C [Example 338, (1R,3S)-3-((5-chloro-2-((5-cyanopyridin-3-yl)methoxy)-4-((4″-(2-((2-hydroxyethyl)amino)ethoxy)-2,2′-dimethyl-[1,1′:3′,1″-terphenyl]-3-yl)methoxy)benzyl)amino)cyclopentane-1-carboxylic acid] | 0.179 | 1060 | 140
C[C@@](CO)(NCc1cc(Cl)c(OCc2cccc(-c3cccc(-c4ccc(OCCNCCO)cc4)c3Cl)c2Cl)nc1OCc1cncc(C#N)c1)C(=O)O [Example 340, (S)-2-(((5-chloro-2-((5-cyanopyridin-3-yl)methoxy)-6-((2,2′-dichloro-4″-(2-((2-hydroxyethyl)amino)ethoxy)-[1,1′:3′,1″-terphenyl]-3-yl)methoxy)pyridin-3-yl)methyl)amino)-3-hydroxy-2-methylpropanoic acid] | 0.087 | 217 | 27.8
